Experimental data from patent US20210121527A1, “METHODS OF TREATING MINIMAL RESIDUAL CANCER” (ICAHN SCHOOL OF MEDICINE AT MOUNT SINAI, priority 2018, published 2021).

Legend:
[1] = system: secondary kinase targets; experiment: Kinase selectivity by enzymatic biochemical assay (FIG. 2E); details: enzymatic assays
Procedure: (§1) Biochemical assays: Recombinant human EIF2AK3 (PERK) catalytic domain (amino acids 536-1116; Cat # PV5107), GFP-eIF2a (Cat # PV4809) substrate, and Terbium-labelled phospho-eIF2a antibody (Cat # PR8956B) were purchased from Invitrogen (Carlsbad, Calif.). HIS-SUMO-GCN2 catalytic domain (amino acids 584-1019) was expressed and purified from E. coli. TR-FRET kinase assays were performed in the absence or presence of inhibitors in a reaction buffer consisting of 50 mM HEPES, pH 7.5, 10 mMMgCl2, 1.0 mM EGTA, and 0.01% Brij-35, and 100-200 nM GFP-eIF2a substrate. […] Following the addition of test compound, the reaction was initiated by addition of enzyme and incubated at room temperature for 45 minutes. The reaction was stopped by addition of EDTA to a final concentration of 10 mM and Terbium-labelled phospho-eIF2α antibody was added at a final concentration of 2 nM and incubated for 90 minutes. The resulting fluorescence was monitored in an EnVison® Multilabel reader (PerkinElmer, Waltham, Mass.). TR-FRET ratios and the resulting IC50 values were determined from the fitted inhibition curves. Biochemical specificity profiling was performed at Cerep (Redmond, Wash.) and DiscoverX (San Diego, Calif.).

[2] = molecular target: T1, PERK phosphorylation in MCF10A-HER2 cells (Homo sapiens, UniProt Q9NZJ5); experiment: Immunoblot of PERK phosphorylation in stressed cells; format: cell-based; details: 2 μM; cells in suspension for 24 hours
T1 construct: endogenous in cells; host or cells: MCF10A-HER2 cells in suspension for 24 hours
T1 sequence (Q9NZJ5 30-1116): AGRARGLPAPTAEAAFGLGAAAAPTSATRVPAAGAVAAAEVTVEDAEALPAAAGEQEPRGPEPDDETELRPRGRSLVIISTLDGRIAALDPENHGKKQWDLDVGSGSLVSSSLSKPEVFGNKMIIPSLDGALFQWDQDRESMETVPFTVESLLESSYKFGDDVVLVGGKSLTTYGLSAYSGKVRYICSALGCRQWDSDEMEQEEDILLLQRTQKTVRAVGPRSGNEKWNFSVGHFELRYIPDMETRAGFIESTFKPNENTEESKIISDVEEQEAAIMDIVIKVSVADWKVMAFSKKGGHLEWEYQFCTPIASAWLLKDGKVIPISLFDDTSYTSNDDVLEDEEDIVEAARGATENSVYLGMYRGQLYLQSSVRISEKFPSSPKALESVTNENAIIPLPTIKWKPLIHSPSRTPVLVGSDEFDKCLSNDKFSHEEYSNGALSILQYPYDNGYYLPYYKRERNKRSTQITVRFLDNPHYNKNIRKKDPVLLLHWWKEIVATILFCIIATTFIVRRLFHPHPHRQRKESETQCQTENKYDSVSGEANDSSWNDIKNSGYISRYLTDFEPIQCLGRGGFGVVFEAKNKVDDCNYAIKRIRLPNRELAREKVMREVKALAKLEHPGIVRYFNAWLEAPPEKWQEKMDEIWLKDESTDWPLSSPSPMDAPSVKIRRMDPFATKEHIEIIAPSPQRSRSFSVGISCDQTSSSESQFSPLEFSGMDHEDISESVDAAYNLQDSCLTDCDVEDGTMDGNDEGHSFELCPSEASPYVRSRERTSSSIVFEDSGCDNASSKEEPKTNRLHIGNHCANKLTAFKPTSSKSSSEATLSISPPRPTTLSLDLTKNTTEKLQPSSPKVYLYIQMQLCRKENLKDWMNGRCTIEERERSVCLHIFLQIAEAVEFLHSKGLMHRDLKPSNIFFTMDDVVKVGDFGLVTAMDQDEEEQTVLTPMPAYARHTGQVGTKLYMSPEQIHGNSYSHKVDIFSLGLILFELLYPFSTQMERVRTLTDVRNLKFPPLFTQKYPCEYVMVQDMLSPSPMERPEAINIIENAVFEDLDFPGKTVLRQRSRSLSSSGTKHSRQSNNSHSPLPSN

[3] = molecular target: 456 kinases; experiment: DiscoveRx scanMAX kinase profiling, number of kinases inhibited; format: binding; details: for # kinases inhibited >50%: 456 kinases tested; for number of kinases with >60% inhibition: 20 μM as stated in text, 456 kinases
Procedure: as §1

[4] = molecular target: T2, GCN2 catalytic domain (Homo sapiens, UniProt Q9P2K8); experiment: GCN2 biochemical TR-FRET kinase assay using purified eIF2a as substrate; details: read-out: GCN2 Enzyme IC50
T2 construct: HIS-SUMO-GCN2 catalytic domain (amino acids 584-1019); HIS (N); SUMO (N); made in house; host or cells: E. coli
T2 sequence (Q9P2K8 584-1019): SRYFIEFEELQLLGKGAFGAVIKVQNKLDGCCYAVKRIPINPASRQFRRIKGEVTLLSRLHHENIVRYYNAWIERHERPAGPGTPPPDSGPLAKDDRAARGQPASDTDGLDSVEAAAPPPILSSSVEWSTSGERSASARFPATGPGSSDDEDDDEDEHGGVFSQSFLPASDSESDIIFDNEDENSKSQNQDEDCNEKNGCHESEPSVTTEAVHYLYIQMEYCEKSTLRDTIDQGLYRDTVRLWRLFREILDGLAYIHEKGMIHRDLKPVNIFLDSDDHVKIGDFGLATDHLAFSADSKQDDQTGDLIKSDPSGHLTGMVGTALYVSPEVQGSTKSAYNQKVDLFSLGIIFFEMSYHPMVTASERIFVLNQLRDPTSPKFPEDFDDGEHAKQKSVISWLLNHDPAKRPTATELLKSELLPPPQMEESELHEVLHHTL
Procedure: as §1, with “TR-FRET” for “Biochemical assays: Recombinant human EIF2AK3 (PERK) catalytic domain (amino acids 536-1116; Cat # PV5107), GFP-eIF2a (Cat # PV4809) substrate, and Terbium-labelled phospho-eIF2a antibody (Cat # PR8956B) were purchased from Invitrogen (Carlsbad, Calif.). HIS-SUMO-GCN2 catalytic domain (amino acids 584-1019) was expressed and purified from E. coli. TR-FRET”

Row | SMILES | secondary kinase targets [1] | PERK phosphorylation (immunoblot) [2] | # kinases inhibited >50% ([3]; 0.2 μM) | # kinases inhibited >50% ([3]; 2.0 μM) | number of kinases with >60% inhibition [3] | IC50 [4] [µM] | # kinases inhibited >50% ([3]; 20.0 μM)
1 | Cc1cccc(CC(=O)N2CCc3c2ccc(-c2cn(C)c4ncnc(N)c24)c3F)n1 [GSK2656157, reference compound] | several secondary targets below 5 μM | inhibition of PERK phosphorylation | 34 | 80 | 58 | > 200 | –
2 | CNC(=O)c1nc(-c2ccc(NC(=O)[C@H](O)c3cc(F)cc(F)c3)cc2C)cnc1N [LY2, 3-amino-6-[4-[[(2R)-2-(3,5-difluorophenyl)-2-hydroxy-acetyl]amino]-2-methyl-phenyl]-N-methyl-pyrazine-2-carboxamide] | several secondary targets below 5 μM | inhibition of PERK phosphorylation | 16 | 35 | – | 10.8 | 138
3 | Cc1cc(NC(=O)[C@H](O)c2cccc(F)c2)ccc1-c1cn(C)c2ncnc(N)c12 [LY3, (2R)-N-[4-(4-amino-7-methyl-pyrrolo[2,3-d]pyrimidin-5-yl)-3-methyl-phenyl]-2-(3-fluorophenyl)-2-hydroxy-acetamide] | several secondary targets below 5 μM | inhibition of PERK phosphorylation | 27 | 85 | – | 16.4 | 229
4 | Cc1cc(NC(=O)[C@H](O)c2cc(F)cc(F)c2)ccc1-c1cnc(N)c(C(=O)NC(C)C)c1 [LY4, 2-amino-5-[4-[[(2R)-2-(3,5-difluorophenyl)-2-hydroxy-acetyl]amino]-2-methyl-phenyl]-N-isopropyl-pyridine-3-carboxamide] | no secondary kinase targets below 15 μM concentration | inhibition of PERK phosphorylation | 19 | 20 | 8 | 18.1 | –
